Results as given in patent US20090074795A1, “Methods for addressing ocular diseases through interference with the wnt signaling pathway” (priority 2007, published 2009).

Assays:
[1] = test system: bovine retinal capillary endothelial cells (BRCEC); experiment: β-catenin activation by high glucose in BRCEC; format: cell-based; settings: 30 mM glucose with 10 μM aminoguanidine, 24 h
Method: To elucidate the mechanism for of the wnt pathway activation induced by high glucose, primary bovine retinal capillary endothelial cells (BRCEC) were treated with low glucose (5 mM glucose and 20 mM mannitol), high glucose (30 mM glucose), and high glucose together with a known anti-oxidant (30 mM glucose with 10 μM aminoguanidine) for 24 h. The nuclear levels of β-catenin were examined by immunocytochemistry using the antibody for β-catenin. […] The nuclear translocation of β-catenin induced by high glucose was blocked by aminoguanidine.
According to embodiments of experimental data, cultured BRCEC were exposed to 5 mM glucose plus 20 mM mannitol as control (FIG. 12A), 30 mM glucose (FIG. 12B), and 30 mM glucose plus 10 μM aminoguanidine (AG) (FIG. 12C) for 24 hours. […] In FIG. 12D, protein levels of β-catenin were determined using western blot analysis, and normalized by β-actin levels. Each lane of FIG. 12D represents an individual culture dish.

primary RCEC = experiment: HIF-1 activation and VEGF expression induced by LiCl in primary RCEC; format: cell-based, bovine; settings: 50 mM LiCl, 24 hours
Method: Blockade of the wnt pathway by DKK1 down-regulates VEGF and HIF-1 expression and reduces vascular leakage in the retina of diabetic rats. To activate the wnt pathway, primary RCEC were treated with 50 mM LiCl, a specific activator of the wnt pathway, in the presence or absence of 85 ng/ml DKK1, a specific inhibitor of the wnt pathway, or BSA for 24 hours. Hypoxia was used as a positive control for HIF-1 activation. The HIF-1 nuclear translocation, a key step in its activation, was measured by immunocytochemistry. Both LiCl and hypoxia increased nuclear levels of HIF-1α, indicating an increased nuclear translocation.
According to embodiments of experimental data, RCEC were exposed to normoxia (FIG. 17A), hypoxia (1% O2) (FIG. 17B), 50 mM LiCl with BSA (FIG. 17C), or 50 mM LiCl plus 85 ng/ml DKK1 (FIG. 17D) for 24 hours. The nuclear translocation of HIF-1α was determined by immunocytochemistry with an antibody against HIF-1α. […] In FIG. 17E, the total levels of VEGF and HIF-1α were determined by western blot analysis with an antibody against HIF-1α or VEGF.

SMILES	nuclear translocation of β-catenin induced by high glucose ([1]; immunocytochemistry)	total levels of β-catenin increased by high glucose ([1]; western blot)	nuclear levels of HIF-1α (primary RCEC; immunocytochemistry)	expression of HIF-1α (primary RCEC; western blot)	expression of VEGF (primary RCEC; western blot)
N=C(N)NN [aminoguanidine]	blocked	blocked			
[Cl-].[Li+] [LiCl, reference compound]			increased	up-regulated	up-regulated
